Measured values: the NIST ThermoML archive (doi:10.1021/acs.jced.5b00802)

What was measured:
[1] = xn = mol fraction of the nth substance listed; settings: 100 kPa, Liquid; for speed of sound: Frequency=3 MHz, Sing-around technique in a fixed-path interferometer; for mass density: Vibrating tube method
[2] = refractive index (Na D-line) (dimensionless); xn = mol fraction of the nth substance listed; settings: 100 kPa, Liquid, Standard Abbe refractometry

CCCCN [1-butanamine] + CN(C)C=O
Settings	mass density, [1] [kg/m3]	refractive index, [2]	speed of sound, [1] [m/s]
293.15 K, x2 = 0.0599	747.39	1.40222	1277.7
293.15 K, x2 = 0.1056	755.445	1.40348	1285
293.15 K, x2 = 0.1591	765.035	1.40498	1293.8
293.15 K, x2 = 0.201	–	1.40619	–
293.15 K, x2 = 0.2505	782.005	1.4076	1309.6
293.15 K, x2 = 0.3017	791.811	1.40911	1318.9
293.15 K, x2 = 0.3583	802.88	1.41079	1329.6
293.15 K, x2 = 0.3992	811.114	1.412	1337.8
293.15 K, x2 = 0.4401	–	1.41322	–
293.15 K, x2 = 0.5059	833.13	1.41521	1359.6
293.15 K, x2 = 0.5483	842.154	–	1368.9
293.15 K, x2 = 0.6043	–	1.41829	–
293.15 K, x2 = 0.6569	866.102	1.41992	1393.7
293.15 K, x2 = 0.6999	875.844	1.42126	1404
293.15 K, x2 = 0.7537	888.314	1.42292	1416.7
293.15 K, x2 = 0.8036	900.101	1.42448	1429
293.15 K, x2 = 0.8579	913.315	1.42618	1442.3
293.15 K, x2 = 0.9048	924.751	1.42763	1453.7
293.15 K, x2 = 0.9546	937.212	1.42915	1465.6
298.15 K, x2 = 0.0575	742.224	1.39946	1255.4
298.15 K, x2 = 0.1092	751.333	1.40093	1263.9
298.15 K, x2 = 0.1519	759.015	1.40215	1271.1
298.15 K, x2 = 0.2043	768.674	1.40367	1280.1
298.15 K, x2 = 0.2448	776.215	1.40485	1287.4
298.15 K, x2 = 0.309	788.51	1.4068	1299.3
298.15 K, x2 = 0.3558	797.705	1.4082	1308.4
298.15 K, x2 = 0.3986	806.285	–	1317
298.15 K, x2 = 0.4381	814.268	–	1324.9
298.15 K, x2 = 0.5028	827.736	1.41274	1338.6
298.15 K, x2 = 0.6005	848.795	1.41578	1360.6
298.15 K, x2 = 0.6608	–	1.41769	–
298.15 K, x2 = 0.6934	869.781	1.41871	1382.5
298.15 K, x2 = 0.7572	884.516	1.42076	1398
298.15 K, x2 = 0.8056	895.958	1.4223	1410
298.15 K, x2 = 0.8546	–	1.42383	–
298.15 K, x2 = 0.9076	920.837	1.42553	1435.1
298.15 K, x2 = 0.9553	932.723	1.42705	1446.6
303.15 K, x2 = 0.0505	736.213	1.39644	1233
303.15 K, x2 = 0.1477	753.539	1.39927	1249.4
303.15 K, x2 = 0.2019	763.466	1.40087	1259
303.15 K, x2 = 0.241	770.708	1.40209	1266
303.15 K, x2 = 0.3024	782.423	1.40392	1277.5
303.15 K, x2 = 0.3558	792.882	1.40552	1287.8
303.15 K, x2 = 0.3992	–	1.40686	–
303.15 K, x2 = 0.4358	808.96	1.40802	1304.1
303.15 K, x2 = 0.5114	824.673	1.41041	1320.3
303.15 K, x2 = 0.5281	828.281	1.41094	1324
303.15 K, x2 = 0.6056	845.104	1.41337	1341.6
303.15 K, x2 = 0.6574	–	1.41502	–
303.15 K, x2 = 0.696	865.473	1.41625	1363.2
303.15 K, x2 = 0.7558	879.286	1.4182	1377.7
303.15 K, x2 = 0.8006	889.962	1.41964	1389
303.15 K, x2 = 0.8544	902.88	1.42138	1402.3
303.15 K, x2 = 0.8998	914.033	1.42282	1413.7
303.15 K, x2 = 0.9466	925.732	1.42431	1425.2
